Assay results reported in patent publication US12090149B2, “SMAD3 inhibitors” (Moexa Pharmaceuticals Limited, priority 2018, dated 2024).
“And” between values parts separate entries of the source, which are not always exact repeats. Equal values may be shown once. “Also recorded” adds a separate entry of the source.

Columns and labels:
[1] = test system: TGFβ/Smad Signaling Pathway SBE Reporter—HEK293 Cell Line; assay: TGFβ/Smad SBE reporter luciferase assay in HEK293 cells stimulated with human TGFβ1; assay type: cell-based; settings: Homo sapiens, 4 h compound, then TGFβ1 20 ng/ml ~18 h
Procedure: • 1. TGFβ/Smad Signaling Pathway SBE Reporter—HEK293 Cell Line BPS Bioscience Catalog #: 60653 • 2. Human TGFβ1 (BPS Bioscience #90900-1) • 3. SIS3 (Sigma #S0447): inhibitor of TGFβ pathway. Prepare stock soln. in DMSO • 4. Growth medium: MEM medium (Invitrogen #11095-080)+10% FBS (ATCC #30-2020)+1% non-essential amino acids (Lonza #13-114E)+1 mM Na pyruvate (Lonza #13-115E)+1% Penicillin/Streptomycin (ATCC #30-2300)+400 μg/ml of Geneticin (Invitrogen #11811-031) • 5. Assay medium: MEM medium+0.5% FBS+1% non-essential amino acids+1 mM Na pyruvate+1% Pen/Strep • 6. 96-well tissue culture-treated white clear-bottom assay plate (Corning #3610) • 7. ONE-Step™ Luciferase Assay System (BPS, Cat. #60690)
SBE reporter-HEK293 cells were harvested from culture in growth medium and seeded at a density of ˜10,000 cells per well into a white clear-bottom 96-well microplate in 100 μl of assay medium. The plate containing cells was incubated at 37° C. in a CO2 incubator. 24 h after seeding, cells were washed with 100 μL of assay buffer and treated with three-fold serial dilution of compounds in 50 μl assay medium. […]
After 18 h of incubation, Luciferase assay was performed using ONE-Step™ Luciferase Assay System according to the protocol provided: 50 μl of ONE-Step™ Luciferase reagent was added per well and shook at room temperature for […]. Luminescence was measured using a luminometer.

Solubility in DMSO = assay type: physicochemical
B16-F10 syngeneic model = assay: Subcutaneous B16-F10 syngeneic model, tumor growth; assay type: in vivo, C57BL/6 mice
Procedure: In order to evaluate the in vivo efficacy of SIS3 and novel compounds of the present invention, a study has been conducted in treatment of the subcutaneous B16-F10 syngeneic models.
• Animal species and strain: C57BL/6 mice • History of treatment: Naive • Sex, age and weight: Female, 6-8 weeks • Breeder/supplier: Shanghai SLAC Laboratory Animal Co. Ltd • Adaptation: At least 7 days • Room: SPF Room • Room temperature: 20-26° C. • Room relative humidity: 40-70% • Light cycle: Fluorescent light for 12-hour light (08:00-20:00) and 12-hour dark • Animal hosting: 2-5 mice/cage each group • Food: Free access to food • Water: Free access to water (municipal tap water filtered by reverse osmosis or high-pressure sterilizer)
B16-F10 cell was maintained at 37° C. under 5% CO2 in DMEM medium supplemented with 10% FBS and were subsequently cultured within 10 passages before inoculated into the mice.
B16-F10 cells (3×10^5 in 100 μL of serum-free medium) were inoculated to each of C57BL/6 mice via s.c. under anesthesia by 3-4% isoflurane. Each group contains 15 mice.
When average tumor volume reached 35-60 mm^3, 15 mice were randomized into group 6. The day of inoculation was denoted as day 0.
Tumor dimensions were measured on Day 4, 5, 6, 8, 11, 13, 15 and 18, after inoculation in 2 dimensions with calipers.
When required, tumor volume was measured daily. The tumor volume (V) was calculated as follows: V=(length×width^2)/2.
The individual relative tumor volume (RTV) was calculated as follows: RTV=Vt/V0, where Vt was the volume on each day, and V0 was the volume at the beginning of the treatment.
Tumor growth inhibition (TGI), TGI=(1−(Ti−T0)/(Ci−C0))×100%; Ti and Ci as the mean tumor volumes of the treatment and control groups on the measurement day; T0 and C0 as the mean tumor volumes of the treatment and control groups on day 0
Results were expressed as mean±S.E.M. Comparisons between two groups were made by Dunnett's multi-comparison test, p<0.05 were considered as significant.

[2] = single agent, i.p. QD*3 weeks, SIS3 10 and 30 mg/kg, MO-00005 10, 30 and 100 mg/kg, vs vehicle

COc1cc2c(cc1OC)CN(C(=O)/C=C/c1c(-c3ccccc3)nc3ccccn13)CC2 [Compound 8, (E)-1-(6,7-dimethoxy-3,4-dihydroisoquinolin-2(1H)-yl)-3-(2-phenylimidazo[1,2-a]pyridin-3-yl)prop-2-en-1-one]
IC50 [1]: 3.53 µM
soluble in DMSO (Solubility in DMSO): soluble
Tumor Sizes (mm3) Mean (B16-F10 syngeneic model; 10 mg/kg q.d. * 3W i.p., Day 4 (estimated value)): 0.62 mm3
Relative tumor volume Mean (B16-F10 syngeneic model; 10 mg/kg q.d. * 3W i.p., Day 4, RTV=Vt/V0): 0.04
Tumor Sizes (mm3) Mean (B16-F10 syngeneic model; 10 mg/kg q.d. * 3W i.p., Day 5 (estimated value)): 0.75 mm3
Relative tumor volume Mean (B16-F10 syngeneic model; 10 mg/kg q.d. * 3W i.p., Day 5, RTV=Vt/V0): 0.04
Tumor Sizes (mm3) Mean (B16-F10 syngeneic model; 10 mg/kg q.d. * 3W i.p., Day 6 (estimated value)): 4.31 mm3
Relative tumor volume Mean (B16-F10 syngeneic model; 10 mg/kg q.d. * 3W i.p., Day 6, RTV=Vt/V0): 0.19
Tumor Sizes (mm3) Mean (B16-F10 syngeneic model; 10 mg/kg q.d. * 3W i.p., Day 8): 38.42 mm3
Relative tumor volume Mean (B16-F10 syngeneic model; 10 mg/kg q.d. * 3W i.p., Day 8, RTV=Vt/V0): 1.00
Tumor Sizes (mm3) Mean (B16-F10 syngeneic model; 10 mg/kg q.d. * 3W i.p., Day 11): 151.84 mm3
Relative tumor volume Mean (B16-F10 syngeneic model; 10 mg/kg q.d. * 3W i.p., Day 11, RTV=Vt/V0): 4.80
Tumor growth inhibition (%) TGI (B16-F10 syngeneic model; 10 mg/kg q.d. * 3W i.p., Day 11, calculated based on tumor volume of Day 8): 29%
Tumor Sizes (mm3) Mean (B16-F10 syngeneic model; 10 mg/kg q.d. * 3W i.p., Day 13): 416.04 mm3
Relative tumor volume Mean (B16-F10 syngeneic model; 10 mg/kg q.d. * 3W i.p., Day 13, RTV=Vt/V0): 12.93
Tumor growth inhibition (%) TGI (B16-F10 syngeneic model; 10 mg/kg q.d. * 3W i.p., Day 13, calculated based on tumor volume of Day 8): 30%
Tumor Sizes (mm3) Mean (B16-F10 syngeneic model; 10 mg/kg q.d. * 3W i.p., Day 15): 816.24 mm3
Relative tumor volume Mean (B16-F10 syngeneic model; 10 mg/kg q.d. * 3W i.p., Day 15, RTV=Vt/V0): 26.76
Tumor growth inhibition (%) TGI (B16-F10 syngeneic model; 10 mg/kg q.d. * 3W i.p., Day 15, calculated based on tumor volume of Day 8): 23%
Tumor Sizes (mm3) Mean (B16-F10 syngeneic model; 10 mg/kg q.d. * 3W i.p., Day 18): 2500.45 mm3
Relative tumor volume Mean (B16-F10 syngeneic model; 10 mg/kg q.d. * 3W i.p., Day 18, RTV=Vt/V0): 93.48
Tumor growth inhibition (%) TGI (B16-F10 syngeneic model; 10 mg/kg q.d. * 3W i.p., Day 18, calculated based on tumor volume of Day 8): 11%
Tumor Sizes (mm3) Mean (B16-F10 syngeneic model; 30 mg/kg q.d. * 3W i.p., Day 4 (estimated value)): 0.36 mm3
Relative tumor volume Mean (B16-F10 syngeneic model; 30 mg/kg q.d. * 3W i.p., Day 4, RTV=Vt/V0): 0.01
Tumor Sizes (mm3) Mean (B16-F10 syngeneic model; 30 mg/kg q.d. * 3W i.p., Day 5 (estimated value)): 0.56 mm3
Relative tumor volume Mean (B16-F10 syngeneic model; 30 mg/kg q.d. * 3W i.p., Day 5, RTV=Vt/V0): 0.01
Tumor Sizes (mm3) Mean (B16-F10 syngeneic model; 30 mg/kg q.d. * 3W i.p., Day 6 (estimated value)): 5.33 mm3
Relative tumor volume Mean (B16-F10 syngeneic model; 30 mg/kg q.d. * 3W i.p., Day 6, RTV=Vt/V0): 0.16
Tumor Sizes (mm3) Mean (B16-F10 syngeneic model; 30 mg/kg q.d. * 3W i.p., Day 8): 47.99 mm3
Relative tumor volume Mean (B16-F10 syngeneic model; 30 mg/kg q.d. * 3W i.p., Day 8, RTV=Vt/V0): 1.00
Relative tumor volume Mean (B16-F10 syngeneic model; 30 mg/kg q.d. * 3W i.p., Day 11, RTV=Vt/V0): 3.76
Tumor growth inhibition (%) TGI (B16-F10 syngeneic model; 30 mg/kg q.d. * 3W i.p., Day 11, calculated based on tumor volume of Day 8): 26%
Tumor Sizes (mm3) Mean (B16-F10 syngeneic model; 30 mg/kg q.d. * 3W i.p., Day 11, listed as MO-00005): 165.30 mm3 and 165.3 mm3
Tumor Sizes (mm3) Mean (B16-F10 syngeneic model; 30 mg/kg q.d. * 3W i.p., Day 13): 376.62 mm3
Relative tumor volume Mean (B16-F10 syngeneic model; 30 mg/kg q.d. * 3W i.p., Day 13, RTV=Vt/V0): 10.44
Tumor Sizes (mm3) Mean (B16-F10 syngeneic model; 30 mg/kg q.d. * 3W i.p., Day 15): 794.11 mm3
Relative tumor volume Mean (B16-F10 syngeneic model; 30 mg/kg q.d. * 3W i.p., Day 15, RTV=Vt/V0): 21.61
Tumor Sizes (mm3) Mean (B16-F10 syngeneic model; 30 mg/kg q.d. * 3W i.p., Day 18): 2303.09 mm3
Relative tumor volume Mean (B16-F10 syngeneic model; 30 mg/kg q.d. * 3W i.p., Day 18, RTV=Vt/V0): 63.87
Relative tumor volume Mean (B16-F10 syngeneic model; 100 mg/kg q.d. * 3W i.p. (group 6), Day 8, RTV=Vt/V0): 1.00
Relative tumor volume Mean (B16-F10 syngeneic model; 100 mg/kg q.d. * 3W i.p. (group 6), Day 11, RTV=Vt/V0): 3.70
Tumor growth inhibition (%) TGI (B16-F10 syngeneic model; 100 mg/kg q.d. * 3W i.p. (group 6), Day 11, calculated based on tumor volume of Day 8): 29%
Tumor Sizes (mm3) Mean (B16-F10 syngeneic model; 100 mg/kg q.d. * 3W i.p. (group 6), Day 11, listed as MO-00005): 155.10 mm3 and 155.1 mm3
Tumor Sizes (mm3) Mean (B16-F10 syngeneic model; 100 mg/kg q.d. * 3W i.p. (group 6), Day 13): 335.85 mm3
Relative tumor volume Mean (B16-F10 syngeneic model; 100 mg/kg q.d. * 3W i.p. (group 6), Day 13, RTV=Vt/V0): 7.98
Tumor growth inhibition (%) TGI (B16-F10 syngeneic model; 100 mg/kg q.d. * 3W i.p. (group 6), Day 13, calculated based on tumor volume of Day 8): 46%
Tumor Sizes (mm3) Mean (B16-F10 syngeneic model; 100 mg/kg q.d. * 3W i.p. (group 6), Day 15): 724.03 mm3
Relative tumor volume Mean (B16-F10 syngeneic model; 100 mg/kg q.d. * 3W i.p. (group 6), Day 15, RTV=Vt/V0): 17.31
Tumor growth inhibition (%) TGI (B16-F10 syngeneic model; 100 mg/kg q.d. * 3W i.p. (group 6), Day 15, calculated based on tumor volume of Day 8): 32%
Tumor Sizes (mm3) Mean (B16-F10 syngeneic model; 100 mg/kg q.d. * 3W i.p. (group 6), Day 18): 2107.22 mm3
Relative tumor volume Mean (B16-F10 syngeneic model; 100 mg/kg q.d. * 3W i.p. (group 6), Day 18, RTV=Vt/V0): 50.47
Tumor growth inhibition (%) TGI (B16-F10 syngeneic model; 100 mg/kg q.d. * 3W i.p. (group 6), Day 18, calculated based on tumor volume of Day 8): 25%
Tumor Sizes (mm3) Mean (B16-F10 syngeneic model; 100 mg/kg q.d. * 3W i.p. (group 6, randomized at tumor volume 35-60 mm^3), Day 8): 42.19 mm3
reduction of tumor weight compared to the control group (B16-F10 syngeneic model; high dose group, after 18 days of the experiment): ~50%
anti-tumor activity against the B16-F10 syngeneic model (in words) (B16-F10 syngeneic model; [2]): anti-tumor response; also recorded: significant anti-tumor activity; also recorded: inhibits the growth of cancer
efficacy on tumor weight (in words) (B16-F10 syngeneic model; [2]): significant efficacy on tumor weight
